Source: US20250144067A1, “PERSONALIZED STARVATION THERAPY FOR CANCER” (Faeth Therapeutics, Inc., priority 2021, published 2025)
Where a name gives a salt, the structure may show the parent alone. Read-outs that look alike come from different tables or passages of the source.

How the values were obtained:
[1] = test system: NCI-H292 lung cancer cells; assay: FDA drug screening, complete media vs cholesterol-free media without statin (TABLE 1); type: cell-based, human
[2] = test system: NCI-H292 lung cancer cells; assay: FDA drug screening, complete media vs cholesterol-free media with simvastatin (TABLE 2); type: cell-based, human
[3] = NCI-H292 cells, FDA drug library screen, cholesterol-free media without statin
[4] = NCI-H292 cells, FDA drug library screen, complete media
[5] = NCI-H292 cells, cholesterol-free media with simvastatin 0.04 μM, FDA drug library screen (TABLE 2)
[6] = NCI-H292 cells, complete media, FDA drug library screen (TABLE 2)
[7] = complete media minus cholesterol-free media + simvastatin (0.04 μM), >0 enhanced anti-cancer activity, about 0 neutral, <0 antagonist
[8] = Complete minus Cholesterol-free, greater than 0 enhanced anti-cancer activity, about 0 neutral, below 0 antagonists
[9] = NCI-H292 cells in cholesterol-free media without statin
[10] = NCI-H292 cells in complete media
[11] = NCI-H292 cells, cholesterol-free media with simvastatin 0.04 μM, cell growth value in FDA drug screen
[12] = NCI-H292 cells, complete media, cell growth value in FDA drug screen
[13] = complete media minus cholesterol-free media + simvastatin, >0 enhanced anti-cancer activity, about 0 neutral, <0 antagonist
[14] = Complete minus Cholesterol-free, […]
[15] = complete media minus cholesterol-free media + simvastatin (0.04 μM), […]
[16] = Complete minus Cholesterol-free, >0 enhanced anti-cancer activity, about 0 neutral, <0 antagonist
[17] = NCI-H292 cells, cholesterol-free media without statin, FDA drug library screen
[18] = NCI-H292 cells, complete media, FDA drug library screen
[19] = NCI-H292 cells, drug in cholesterol-free media with simvastatin 0.04 μM
[20] = NCI-H292 cells, drug in complete media
[21] = complete media vs cholesterol-free media + simvastatin (0.04 μM), >0 enhanced anti-cancer activity, about 0 neutral, <0 antagonist
[22] = NCI-H292 cells, cholesterol-free media without statin
[23] = NCI-H292 cells, FDA drug library screen, cholesterol-free media with simvastatin 0.04 μM
[24] = complete media vs cholesterol-free media + simvastatin (0.04 μM), […]
[25] = complete vs cholesterol-free media, greater than 0 enhanced anti-cancer activity, about 0 neutral, below 0 antagonists
[26] = NCI-H292 cells, FDA library drug in cholesterol-free media with simvastatin 0.04 μM
[27] = NCI-H292 cells, FDA library drug in complete media
[28] = complete vs cholesterol-free media, […]

## C[C@](N)(Cc1ccc(O)cc1)C(=O)O [Metyrosine]
[1]; Complete minus Cholesterol-free, greater than 0 enhanced anti-cancer activity, about 0 neutral, below 0 antagonist
  Difference: −0.10
[1]; [3]
  Cholesterol-free: 1.606
[1]; [4]
  Complete: 1.504
[2]; [5]
  Cholesterol-free media + simvastatin (0.04 μM): 0.9769
[2]; [6]
  Complete Media: 0.9769
[2]; [7]
  Difference: 0.00

## OC[C@H]1O[C@@H](c2ccc(F)c(Cc3cc4ccccc4s3)c2)[C@H](O)[C@@H](O)[C@@H]1O [Ipragliflozin]
[1]; [8]
  Difference: −0.87
[1]; [9]
  Cholesterol-free: 1.769
[1]; [10]
  Complete: 0.8999
[2]; [11]
  Cholesterol-free media + simvastatin (0.04 μM): 0.8889
[2]; [12]
  Complete Media: 0.9547
[2]; [13]
  Difference: 0.07

## Lumateperone (tosylate)
[1]; [14]
  Difference: −0.84
[1]; [9]
  Cholesterol-free: 1.615
[2]; [5]
  Cholesterol-free media + simvastatin (0.04 μM): 1.37
[2]; [6]
  Complete Media: 1.357
[2]; [15]
  Difference: −0.01

## CC1(S(=O)(=O)[O-])CC(=O)c2ccccc2C1=O.[Na+] (stereo not shown) [Menadione bisulfite (sodium)]
[1]; [16]
  Difference: 0.03
[1]; [17]
  Cholesterol-free: 1.466
[1]; [18]
  Complete: 1.492
[2]; [19]
  Cholesterol-free media + simvastatin (0.04 μM): 0.991
[2]; [20]
  Complete Media: 0.8295
[2]; [21]
  Difference: −0.16

## Cl.NCCCC[C@H](N)C(=O)O [L-Lysine hydrochloride]
[1]; [14]
  Difference: −0.25
[1]; [22]
  Cholesterol-free: 1.006
[1]; NCI-H292 cells, complete media
  Complete: 0.7519
[2]; [23]
  Cholesterol-free media + simvastatin (0.04 μM): 1.192
[2]; [4]
  Complete Media: 1.079
[2]; [24]
  Difference: −0.11

## CN1CCOC(c2ccccc2)c2ccccc2C1 (stereo not shown) [Nefopam (hydrochloride)]
[1]; [22]
  Cholesterol-free: 1.379
[1]; NCI-H292 cells, complete media
  Complete: 0.9673
[1]; [25]
  Difference: −0.41
[2]; [5]
  Cholesterol-free media + simvastatin (0.04 μM): 1.077
[2]; [6]
  Complete Media: 1.041
[2]; [7]
  Difference: −0.04

## CCCCCCCCCCCCCCCC[n+]1ccccc1.O.[Cl-] [Cetylpyridinium (chloride monohydrate)]
[1]; [14]
  Difference: 0.03
[1]; [17]
  Cholesterol-free: −0.01651
[1]; [18]
  Complete: 0.01449
[2]; NCI-H292 cells, cholesterol-free media with simvastatin 0.04 μM, […]
  Cholesterol-free media + simvastatin (0.04 μM): 0.1519
[2]; NCI-H292 cells, complete media, […]
  Complete Media: 0.2714
[2]; complete media minus cholesterol-free media + simvastatin, […]
  Difference: 0.12

## CCC[C@@]1(CCc2ccccc2)CC(O)=C([C@H](CC)c2cccc(NS(=O)(=O)c3ccc(C(F)(F)F)cn3)c2)C(=O)O1 [Tipranavir]
[1]; [14]
  Difference: −0.27
[1]; [22]
  Cholesterol-free: 0.9401
[1]; NCI-H292 cells, complete media
  Complete: 0.6703
[2]; [5]
  Cholesterol-free media + simvastatin (0.04 μM): 1.22
[2]; [6]
  Complete Media: 1.177
[2]; [15]
  Difference: −0.04

## CC(C)[C@H](N)C(=O)OCC(CO)OCn1cnc2c(=O)nc(N)[nH]c21 (stereo partly shown) [Valganciclovir (hydrochloride)]
[1]; [16]
  Difference: −0.03
[1]; [17]
  Cholesterol-free: 1.042
[1]; [18]
  Complete: 1.007
[2]; [23]
  Cholesterol-free media + simvastatin (0.04 μM): 0.9599
[2]; [4]
  Complete Media: 1.178
[2]; [13]
  Difference: 0.22

## Hemin
[1]; [14]
  Difference: −0.04
[1]; [17]
  Cholesterol-free: 0.9968
[1]; [18]
  Complete: 0.96
[2]; [5]
  Cholesterol-free media + simvastatin (0.04 μM): 1.178
[2]; [6]
  Complete Media: 1.151
[2]; [15]
  Difference: −0.03

## Cc1[nH]cnc1CN1CCc2c(c3ccccc3n2C)C1=O [Alosetron (Hydrochloride)]
[1]; [16]
  Difference: 0.05
[1]; [17]
  Cholesterol-free: 1.398
[1]; [18]
  Complete: 1.45
[2]; [23]
  Cholesterol-free media + simvastatin (0.04 μM): 0.9241
[2]; [4]
  Complete Media: 0.826
[2]; [21]
  Difference: −0.10

## CC1=C(C(=O)O)N2C(=O)[C@@H](NC(=O)[C@H](N)c3ccccc3)[C@H]2SC1 [Cephalexin (monohydrate)]
[1]; [22]
  Cholesterol-free: 1.506
[1]; NCI-H292 cells, complete media
  Complete: 1.062
[1]; [25]
  Difference: −0.44
[2]; [26]
  Cholesterol-free media + simvastatin (0.04 μM): 1.59
[2]; [27]
  Complete Media: 0.9161
[2]; [21]
  Difference: −0.67

## O[C@H]([C@H](O)[C@@H]1CO1)[C@H]1CO1 [VAL-083]
[1]; [22]
  Cholesterol-free: 1.036
[1]; NCI-H292 cells, complete media
  Complete: 0.6339
[1]; [28]
  Difference: −0.40
[2]; [19]
  Cholesterol-free media + simvastatin (0.04 μM): 0.879
[2]; [20]
  Complete Media: 0.7017
[2]; [24]
  Difference: −0.18

## O=C(NCc1c(F)cc(F)cc1F)c1cn2c(c(O)c1=O)C(=O)N1[C@H]3CC[C@H](C3)O[C@@H]1C2 [Bictegravir]
[1]; [22]
  Cholesterol-free: 1.057
[1]; NCI-H292 cells, complete media
  Complete: 0.7123
[1]; [25]
  Difference: −0.34
[2]; [19]
  Cholesterol-free media + simvastatin (0.04 μM): 1.109
[2]; [20]
  Complete Media: 0.9083
[2]; [21]
  Difference: −0.20

## N[C@H]1C(O)O[C@H](CO)[C@@H](O)[C@@H]1O (stereo partly shown) [Glucosamine]
[1]; [22]
  Cholesterol-free: 1.17
[1]; NCI-H292 cells, complete media
  Complete: 0.7725
[1]; [25]
  Difference: −0.40
[2]; [26]
  Cholesterol-free media + simvastatin (0.04 μM): 1.916
[2]; [21]
  Difference: −0.77

## COCCCOc1cc(C[C@@H](C[C@H](N)[C@@H](O)C[C@H](C(=O)NCC(C)(C)C(N)=O)C(C)C)C(C)C)ccc1OC [Aliskiren]
[1]; [8]
  Difference: −0.67
[1]; [9]
  Cholesterol-free: 1.754
[1]; [10]
  Complete: 1.084
[2]; [26]
  Cholesterol-free media + simvastatin (0.04 μM): 1.326
[2]; [27]
  Complete Media: 0.8268
[2]; [21]
  Difference: −0.50

## Prucalopride (succinate)
[1]; [22]
  Cholesterol-free: 1.329
[1]; NCI-H292 cells, complete media
  Complete: 0.905
[1]; [25]
  Difference: −0.42
[2]; [23]
  Cholesterol-free media + simvastatin (0.04 μM): 1.172
[2]; [4]
  Complete Media: 1.048
[2]; [21]
  Difference: −0.12

## COc1cc2nc(N3CCN(C(=O)[C@H]4CCCO4)CC3)nc(N)c2cc1OC [(R)-Terazosin]
[1]; [22]
  Cholesterol-free: 1.165
[1]; NCI-H292 cells, complete media
  Complete: 0.7551
[1]; [25]
  Difference: −0.41
[2]; [5]
  Cholesterol-free media + simvastatin (0.04 μM): 0.9379
[2]; [6]
  Complete Media: 0.9227
[2]; [7]
  Difference: −0.02

## CCCOC(=O)c1cc(O)c(O)c(O)c1 [Propyl gallate]
[1]; [22]
  Cholesterol-free: 1.541
[1]; NCI-H292 cells, complete media
  Complete: 1.125
[1]; [25]
  Difference: −0.42
[2]; [19]
  Cholesterol-free media + simvastatin (0.04 μM): 1.306
[2]; [20]
  Complete Media: 1.135
[2]; [21]
  Difference: −0.17

## Cc1cccc(C(C)c2cnc[nH]2)c1C (stereo not shown) [Medetomidine (hydrochloride)]
[1]; [22]
  Cholesterol-free: 1.452
[1]; NCI-H292 cells, complete media
  Complete: 1.139
[1]; [25]
  Difference: −0.31
[2]; [11]
  Cholesterol-free media + simvastatin (0.04 μM): 0.8752
[2]; [12]
  Complete Media: 0.9447
[2]; [13]
  Difference: 0.07

## CC(C)(C)C(=O)OCC(=O)[C@H]1CC[C@H]2[C@@H]3CCC4=CC(=O)CC[C@]4(C)[C@H]3CC[C@]12C [Desoxycorticosterone pivalate]
[1]
  Cholesterol-free: 1.574
  Complete: 1.04
  Difference: −0.53
[2]
  Cholesterol-free media + simvastatin (0.04 μM): 1.728
  Complete Media: 1.762
  Difference: 0.03

## COc1cc2c(cc1OC)-c1cc3ccc(OC)c(OC)c3c[n+]1CC2.[Cl-] [Palmatine (chloride)]
[1]; [14]
  Difference: −0.14
[1]; [3]
  Cholesterol-free: 0.7642
[1]; [4]
  Complete: 0.6255
[2]; [5]
  Cholesterol-free media + simvastatin (0.04 μM): 0.706
[2]; [6]
  Complete Media: 0.6459
[2]; [15]
  Difference: −0.06

## CNC(=C[N+](=O)[O-])NCCSCc1ccc(CN(C)C)o1 [Ranitidine (hydrochloride)]
[1]; [8]
  Difference: −0.55
[1]; [9]
  Cholesterol-free: 1.186
[1]; [10]
  Complete: 0.6384
[2]; [26]
  Cholesterol-free media + simvastatin (0.04 μM): 1.27
[2]; [27]
  Complete Media: 0.8219
[2]; [21]
  Difference: −0.45

## C=CCc1ccc(O)c(-c2cc(CC=C)ccc2O)c1 [Magnolol]
[1]; [17]
  Cholesterol-free: 0.6495
[1]; [18]
  Complete: 1.053
[1]; [28]
  Difference: 0.40
[2]; [19]
  Cholesterol-free media + simvastatin (0.04 μM): 1.293
[2]; [20]
  Complete Media: 1.087
[2]; [24]
  Difference: −0.21
